Here are results for four compounds from patent US5071749A, “Glycopetide antibiotic PA-45052-B” (Shionogi & Co., Ltd., priority 1987, dated 1991).

One data set relates to Cl. perfringens SP07. The format is cell-based, Clostridium perfringens. As to conditions: strain SP07, origin chicken; GAM agar, anaerobic, 37° C., 24 hours.
Another data set concerns Cl. perfringens 3C-01. It is filed as cell-based, Clostridium perfringens. The conditions noted are these: strain 3C-01, origin chicken; GAM agar, anaerobic, 37° C., 24 hours.
Data set [1] concerns Staphylococcus aureus SMITH. The data set is described as follows: In vitro antibacterial activity, agar dilution method (MIC). As to conditions: 37° C., 18-20 hrs. (In general: In agar dilution the substance is mixed into plates at graded concentrations.)
The subject of data set [2] is Streptococcus pyogenes C-203. The data set is described as above. As to conditions: horse serum 0.5%, 37° C., 18-20 hrs.
The test system of the next data set is Cl. perfringens 9C-02. It is filed as cell-based, Clostridium perfringens. As to conditions: strain 9C-02, origin chicken; GAM agar, anaerobic, 37° C., 24 hours.
For the next data set, the system named is broiler chicks. The data set is described as follows: Growth-stimulation test on chicks. It is filed as in vivo, broiler chicks (arbor acre). The conditions noted are these: 20 ppm in feed for 14 days; for FCR: feed efficiency (B/A) / FCR (%), index when control group is 100 / Increase of weight (%), index when control group is 100: broiler chicks; for Increase of weight A (M = g) ± SD (average increase of weight): broiler chicks 8 to 22 days old, 24 chicks; for FCR (%), index when control group is 100 / Increase of weight (%), index when control group is 100: control = 100. The source says:
The growth-stimulating activities of PA-45052-A, PA-45052-B and PA-45052-E on broiler chicks (arbor acre, 8 days old) were investigated by using the known antibiotic thiopeptin as a referential agent. Chicks were fed with a feed mush (crude protein (CP) concentration 18%, each agent's concentration 20 ppm, not supplemented with other antibiotics) for 14 days in the battery brooders. The method of this experiment was as follows. After chicks were fed by floor pen with a feed (CP concentration 23%) from 0 to 8 days, they were divided into 5 groups (24 chicks a group, 12 male and 12 female) in such a way that the average weights of the groups are equal. To each group was administered PA-45052-A (20 ppm), PA-45052-B (20 ppm), PA-45052-E (20 ppm), thiopeptin (20 ppm) or only a feed (CP 18%) for 14 days. Each group was fed in cages (435×600×410 mm, each cage has 6-7 chicks) at 26°±2° C. for 14 days (up to 22 days old). Effectiveness was estimated from the increase of weight and the feed efficiency.

The test system of data set [3] is Cl. perfringens NCTC-8798. It is filed as cell-based, Clostridium perfringens. The conditions noted are these: strain NCTC-8798, origin cow; GAM agar, anaerobic, 37° C., 24 hours.
Another data set concerns Cl. perfringens 02441. The format is cell-based, Clostridium perfringens. The conditions noted are these: strain 02441, origin chicken; GAM agar, anaerobic, 37° C., 24 hours.
Data set [4] has as its system Cl. perfringens NCTC-8239. It is filed as cell-based, Clostridium perfringens. The conditions noted are these: strain NCTC-8239, origin cow; GAM agar, anaerobic, 37° C., 24 hours.
For data set [5], the system named is Staphylococcus aureus SR14. The data set is described as follows: In vitro antibacterial activity, agar dilution method (MIC). It is filed as cell-based. As to conditions: Staphylococcus aureus SR14, penicillin-resistant, 37° C., 18-20 hrs.
For data set [6], the system named is Cl. perfringens FC 2208/75. The format is cell-based, Clostridium perfringens. As to conditions: strain FC 2208/75, origin cow; GAM agar, anaerobic, 37° C., 24 hours.
Data set [7] has as its system Streptococcus pneumoniae Type I. In words: In vitro antibacterial activity, agar dilution method (MIC). As to conditions: horse serum 0.5%, 37° C., 18-20 hrs.
For data set [8], the system named is Staphylococcus aureus PDA 209P JC-1. Described as above. As to conditions: 37° C., 18-20 hrs.
Data set [9] deals with Streptococcus pneumoniae Type I. The data set is described as follows: Antibacterial activity in vivo, mouse intraperitoneal infection (ED50). The conditions noted are these: Slc-ICR female mice, i.p. inoculation of Streptococcus pneumoniae Type I; s.c. dosing 1 and 5 hours later; survival on day 7. The method, then: (§1) Test method: The test organism is intraperitoneally inoculated to Slc-ICR female mice (8 mice per group), and PA-45052-A, -B or -C (two-fold dilution) is subcutaneously administered twice one hour later and 5 hours later.
(§2) Results: The 50% effective dose (ED50) is calculated from the survival rate on day 7.

In data set [10] the test system is Streptococcus pyogenes C-203. Described as above. The conditions noted are these: Slc-ICR female mice, i.p. inoculation of Streptococcus pyogenes C-203; s.c. dosing 1 and 5 hours later; survival on day 7. As to the method: as §1, §2
Data set [11] concerns Staphylococcus aureus SR 2030. The data set is described as above. The conditions noted are these: Slc-ICR female mice, i.p. inoculation of S. aureus SR 2030 (methicillin-resistant); s.c. dosing 1 and 5 hours later; survival on day 7. As to the method: as §1, §2
Data set [12] concerns Staphylococcus aureus SR 3637. The description is as above. As to conditions: Slc-ICR female mice, i.p. inoculation of S. aureus SR 3637 (methicillin-resistant); s.c. dosing 1 and 5 hours later; survival on day 7. As to the method:
as §1, §2

In data set [13] the test system is Streptococcus epidermidis ATCC 14490. In words: In vitro antibacterial activity, agar dilution method (MIC). As to conditions: 37° C., 18-20 hrs.
In data set [14] the test system is Staphylococcus aureus SR3131. Described as above. It is filed as cell-based. As to conditions: Staphylococcus aureus SR3131, methicillin-resistant, 37° C., 18-20 hrs.
The test system of data set [15] is Cl. perfringens NCTC-10239. It is filed as cell-based, Clostridium perfringens. The conditions noted are these: strain NCTC-10239, origin cow; GAM agar, anaerobic, 37° C., 24 hours.
Data set [16] has as its system Streptococcus faecalis SR 1004. The data set is described as follows: In vitro antibacterial activity, agar dilution method (MIC). The conditions noted are these: horse serum 0.5%, 37° C., 18-20 hrs.
The subject of data set [17] is Staphylococcus aureus SR1626. The data set is described as above. The format is cell-based. As to conditions: Staphylococcus aureus SR1626, methicillin-resistant, 37° C., 18-20 hrs.
The next data set deals with Cl. perfringens S-79. The format is cell-based, Clostridium perfringens. As to conditions: strain S-79, origin cow; GAM agar, anaerobic, 37° C., 24 hours.
In another data set the test system is Cl. perfringens 6B-10. It is filed as cell-based, Clostridium perfringens. As to conditions: strain 6B-10, origin cow; GAM agar, anaerobic, 37° C., 24 hours.
The subject of data set [18] is Staphylococcus aureus ATCC 25923. The data set is described as follows: In vitro antibacterial activity, agar dilution method (MIC). As to conditions: 37° C., 18-20 hrs.
In another data set the test system is mouse. The data set is described as follows: LD50 on injection to mouse. It is filed as in vivo. From the text:
The growth-stimulating agent of this invention not only promotes growth of animals but also improves feed efficiency. Naturally, it is effective against infections by bacteria.

The test system of data set [19] is Staphylococcus aureus SR3626. In words: In vitro antibacterial activity, agar dilution method (MIC). The format is cell-based. The conditions noted are these: Staphylococcus aureus SR3626, methicillin-resistant, 37° C., 18-20 hrs.
Data set [20] relates to Streptococcus agalactiae SR 1247. The description is as above. The conditions noted are these: horse serum 0.5%, 37° C., 18-20 hrs.
A further data set concerns Cl. perfringens CW-1970. It is filed as cell-based, Clostridium perfringens. As to conditions: strain CW-1970, origin cow; GAM agar, anaerobic, 37° C., 24 hours.

Broadly, the MIC is the least concentration at which growth counts as inhibited. Usually LD50 stands for the dose expected to kill half of the subjects tested.

≈ marks a conversion by molar mass, not a printed value.

`CNC(CC(C)C)C(=O)NC1C(=O)NC(CC(N)=O)C(=O)NC2C(=O)NC3C(=O)NC(C(=O)NC(C(=O)O)c4cc(O)cc(O)c4-c4cc3ccc4O)C(OC3CC(C)(N)C(O)C(C)O3)c3ccc(c(Cl)c3)Oc3cc2cc(c3OC2OC(CO)C(O)C(O)C2OC2CC(C)(N)C(O)C(C)O2)Oc2ccc(cc2Cl)C1O` (stereo not drawn) [PA-45052-A]: the minimal inhibitory concentration (MIC) came to 0.2 µg/mL (≈ 0.126 µM) against Cl. perfringens SP07; 0.78 µg/mL (≈ 0.49 µM) with Cl. perfringens 3C-01; 0.39 µg/mL (≈ 0.245 µM) in data set [1]; 0.2 µg/mL (≈ 0.126 µM) in [2]; 0.39 µg/mL (≈ 0.245 µM) with Cl. perfringens 9C-02; 0.39 µg/mL (≈ 0.245 µM) in data set [3]. Moreover, the MIC with Cl. perfringens 02441 worked out at 0.39 µg/mL (≈ 0.245 µM); in data set [4], 0.2 µg/mL (≈ 0.126 µM); in [5], 0.39 µg/mL (≈ 0.245 µM); in [6] it was 0.39 µg/mL (≈ 0.245 µM); in data set [7], 0.1 µg/mL (≈ 0.0628 µM); in data set [8], 0.2 µg/mL (≈ 0.126 µM). For the same compound, the minimum inhibitory concentration (MIC) in [13] amounted to 0.78 µg/mL (≈ 0.49 µM); in data set [14], 0.39 µg/mL (≈ 0.245 µM); in data set [15], 0.2 µg/mL (≈ 0.126 µM); in [16], 0.78 µg/mL (≈ 0.49 µM); in [17] it was 0.39 µg/mL (≈ 0.245 µM); against Cl. perfringens S-79, 0.39 µg/mL (≈ 0.245 µM). For the same compound, the minimum inhibitory concentration (MIC) with Cl. perfringens 6B-10 turned out to be 0.39 µg/mL (≈ 0.245 µM); in data set [18], 0.39 µg/mL (≈ 0.245 µM); in [19], 0.39 µg/mL (≈ 0.245 µM); in data set [20] it was 0.2 µg/mL (≈ 0.126 µM); in the data set on Cl. perfringens CW-1970 it was 0.39 µg/mL (≈ 0.245 µM). The “FCR: feed efficiency (B/A)” value with broiler chicks amounted to 1.63. Besides, the “Increase of weight A (M = g) ± SD (average increase of weight)” value in the data set with broiler chicks was determined as 440.9 ± 60.4 g. Moreover, the “FCR (%), index when control group is 100” value in the data set with broiler chicks turned out to be 95.3%. Besides, the “Increase of weight (%), index when control group is 100” value with broiler chicks was found to be 105.9%. In addition, the “ED50 (50% effective dose)” value in [9] stood at 0.19 mg/kg/dose; in data set [10], 0.14 mg/kg/dose; in data set [11], 0.99 mg/kg/dose; in data set [12], 1.91 mg/kg/dose. In the data set on mouse, the median lethal dose (LD50) is reported as greater than 1000 mg/kg.
On to `CC(C)CC(C(=O)NC1C(=O)NC(CC(N)=O)C(=O)NC2C(=O)NC3C(=O)NC(C(=O)NC(C(=O)O)c4cc(O)cc(O)c4-c4cc3ccc4O)C(OC3CC(C)(N)C(O)C(C)O3)c3ccc(c(Cl)c3)Oc3cc2cc(c3OC2OC(CO)C(O)C(O)C2OC2CC(C)(N)C(O)C(C)O2)Oc2ccc(cc2Cl)C1O)N(C)C` (stereo not drawn) [PA-45052-D], for which the minimal inhibitory concentration (MIC) came to 0.39 µg/mL (≈ 0.243 µM) in data set [1]; 0.2 µg/mL (≈ 0.124 µM) in [2]; 0.39 µg/mL (≈ 0.243 µM) in [5]; 0.2 µg/mL (≈ 0.124 µM) in data set [7]; 0.2 µg/mL (≈ 0.124 µM) in data set [8]; 0.78 µg/mL (≈ 0.486 µM) in data set [13]. The MIC in data set [14] amounted to 0.39 µg/mL (≈ 0.243 µM); in [16], 0.78 µg/mL (≈ 0.486 µM); in data set [17], 0.39 µg/mL (≈ 0.243 µM); in [18] it was 0.78 µg/mL (≈ 0.486 µM); in data set [19] it was 0.78 µg/mL (≈ 0.486 µM); in data set [20], 0.2 µg/mL (≈ 0.124 µM).
With `CC(C)CC(C(=O)NC1C(=O)NC(CC(N)=O)C(=O)NC2C(=O)NC3C(=O)NC(C(=O)NC(C(=O)O)c4cc(O)cc(O)c4-c4cc3ccc4O)C(OC3CC(C)(N)C(O)C(C)O3)c3ccc(c(Cl)c3)Oc3cc2cc(c3OC2OC(CO)C(O)C(O)C2O)Oc2ccc(cc2Cl)C1O)N(C)C` (stereo not drawn) [PA-45052-E], the MIC was determined as 0.78 µg/mL (≈ 0.533 µM) in [1]; 0.39 µg/mL (≈ 0.267 µM) in [2]; 0.78 µg/mL (≈ 0.533 µM) in data set [5]; 0.39 µg/mL (≈ 0.267 µM) in [7]; 0.39 µg/mL (≈ 0.267 µM) in [8]; 3.13 µg/mL (≈ 2.14 µM) in [13]. In addition, the minimal inhibitory concentration (MIC) in [14] was determined as 0.78 µg/mL (≈ 0.533 µM); in [16] it was 1.56 µg/mL (≈ 1.07 µM); in data set [17], 0.78 µg/mL (≈ 0.533 µM); in data set [18] it was 0.78 µg/mL (≈ 0.533 µM); in data set [19], 0.78 µg/mL (≈ 0.533 µM); in data set [20] it was 0.39 µg/mL (≈ 0.267 µM).
On to thiopeptin [reference compound], for which, in the data set on broiler chicks, the “FCR: feed efficiency (B/A)” value turned out to be 1.62; the “Increase of weight A (M = g) ± SD (average increase of weight)” value was 431.5 ± 53.4 g; the “FCR (%), index when control group is 100” value came to 94.7%; the “Increase of weight (%), index when control group is 100” value turned out to be 103.7%.
